Legend:
[1] = system: Hepa1c1c7 cells; assay: MTT growth inhibition / cytotoxicity on Hepa1c1c7 cells; assay type: cell-based, murine; details: Mus musculus, Hepa-1c1c7, 48 h, highest concentration tested 25 μM
Experimental: The antiproliferative activity of the compounds according to the invention was determined by the MTT assay on the following cell lines: MCF7 (human breast cancer cell line), HCT116 (human colon cancer cell line), and CCL186 (normal human diploid embryonic lung fibroblast). […] MCF7 and CCL186 cells were cultured in Eagle's Minimum Essential Medium (EMEM) with 1 mM sodium pyruvate, 1.5 g/L sodium bicarbonate, 2 mM L-glutamine supplemented with 10% FBS and 0.01% antibiotics. HCT116 cells were cultured in McCoy's 5A Medium with 2.2 g/L sodium bicarbonate supplemented with […] and 0.01% antibiotics. Cells were plated at the following densities: 10000 cells/well (MCF7), 4000 cells/well (HCT116), 5000 cells/well (CCL186). They were grown for 24 h in a 96-well plate, with 100 μl of corresponding medium in each well. The test compounds were prepared in DMSO and diluted to a series of concentrations with medium. Not more than 1% DMSO (final concentration) was present in each well. The test compounds were incubated with the cells for 72 h, after which 100 μl MTT solution (0.5 mg/ml in 1× PBS) was added for 3 h and the cells lysed to release the formazan product. The latter was dissolved in DMSO (150 μl) and absorbance determined within 30 min at 590 nm on a microtitre plate reader. Cell survival was given by the expression:
Cell survival (%)=[(Acells+test compound−Ablank)/(Auntreated cells−Ablank)]×100
where A is the absorbance of formazan measured at 590 nm in the test (Acells+test compound), control (Auntreated cells) or blank (Ablank) wells. Each concentration of test compound was evaluated on 3 separate occasions. […] The MTT assay was also carried out on Hepa1c1c7 cells for the purpose of determining cytotoxicity of test compounds. The same procedure was adopted except that the incubation period of compound with cells was 48 h, instead of 72 h.

[2] = system: THLE2; assay: Cell viability assay (Cell Titer-Glo), THLE2 normal hepatocyte cell line; assay type: cell-based; details: Homo sapiens, THLE-2, 72 h, read-out: IC50 THLE2
Experimental: (§1) Cells were plated at 5000-7000 cells/per well and incubated for 24 h before treatment. […] Cell Titer-Glo (Promega, Madison, Wis.) assay was performed according to manufacturer's instruction with luminescence detected on SpectraMax M5 (Molecular Devices, Sunnyvale, Calif.). Data was expressed as percentage of viability vs. vehicle-treated controls.
(§2) The anti-cancer potential of these compounds against HCC were tested using a phenotypic assay where compounds were screened over 100-fold concentration range (0.1 to 10 μM) using two representative liver cancer cell lines, HepG2 and HuH7. Additionally, THLE2 was employed as normal hepatocyte cell line to differentiate anti-cancer potential from non-specific cytotoxicities.
(§3) Cell viability assay shown in FIG. 2 was analyzed by Prism5 for the determination of respective IC50 values.

[3] = system: HuH7; assay: cells; assay type: cell-based, human; details: for IC50 / viability at 10 µM: Homo sapiens; for IC50: Huh-7, 72 h, read-out: IC50 HuH7; for viability at 10 µM: Huh-7, 72 h, vs vehicle-treated controls, read-out: Percentage viability HuH7; for SR(HuH7/THLE2) safety ratio: percentage viability at 10 μM normalized with THLE2
Experimental: as §1, §2, §3
(§4) Cell viability was determined as described previous in Table 7. Percentage viability at 10 μM treatments was determined and safety ratios were calculated by normalizing survival in HCC cell lines to THLE2.

[4] = system: HepG2; assay: cells; assay type: cell-based, human; details: for IC50 / viability at 10 µM: Homo sapiens; for IC50: HepG2, 72 h, read-out: IC50 HepG2; for viability at 10 µM: HepG2, 72 h, vs vehicle-treated controls, read-out: Percentage viability HepG2; for SR(HepG2/THLE2) safety ratio: percentage viability at 10 μM normalized with THLE2
Experimental: as §1, §2, §3, §4

[5] = biological target: T1, EphA2 (Homo sapiens, UniProt P29317); assay: Human phospho-RTK array, HuH7: EphA2; assay type: cell-based; details: 24 h, untreated 0.07
T1 construct: we examined the constitutively phosphorylated IGF-1R, EphA2 and Tyro3; endogenous in cells; host or cells: HuH7
T1 sequence (P29317 24-976): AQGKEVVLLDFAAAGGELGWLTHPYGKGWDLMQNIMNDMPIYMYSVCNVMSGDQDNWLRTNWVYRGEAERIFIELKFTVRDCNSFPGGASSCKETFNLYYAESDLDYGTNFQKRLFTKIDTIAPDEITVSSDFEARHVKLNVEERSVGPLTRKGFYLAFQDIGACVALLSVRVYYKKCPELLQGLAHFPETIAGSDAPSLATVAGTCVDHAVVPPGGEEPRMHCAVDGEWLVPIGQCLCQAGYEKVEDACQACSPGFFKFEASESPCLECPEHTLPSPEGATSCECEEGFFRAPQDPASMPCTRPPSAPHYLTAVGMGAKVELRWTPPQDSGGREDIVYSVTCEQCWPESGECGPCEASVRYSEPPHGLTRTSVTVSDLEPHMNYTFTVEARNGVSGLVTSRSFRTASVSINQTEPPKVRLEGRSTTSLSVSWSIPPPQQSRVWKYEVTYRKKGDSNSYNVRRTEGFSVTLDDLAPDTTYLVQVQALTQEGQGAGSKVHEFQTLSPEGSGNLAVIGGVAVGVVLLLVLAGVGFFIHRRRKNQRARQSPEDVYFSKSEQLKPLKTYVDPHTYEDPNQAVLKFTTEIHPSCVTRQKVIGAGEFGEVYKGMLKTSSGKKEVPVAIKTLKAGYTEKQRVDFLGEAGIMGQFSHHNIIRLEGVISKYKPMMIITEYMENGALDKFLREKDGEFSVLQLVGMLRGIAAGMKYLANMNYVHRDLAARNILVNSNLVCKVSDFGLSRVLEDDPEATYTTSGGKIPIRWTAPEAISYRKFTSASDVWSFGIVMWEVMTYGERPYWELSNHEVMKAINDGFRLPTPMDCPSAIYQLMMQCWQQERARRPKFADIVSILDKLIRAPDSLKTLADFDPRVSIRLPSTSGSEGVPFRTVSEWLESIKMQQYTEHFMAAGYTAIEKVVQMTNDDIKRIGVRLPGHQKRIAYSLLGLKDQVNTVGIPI
Experimental: (§5) Kinase phosphorylation changes were determined with human phospho-RTK array.
(§6) Cells harvesting, hybridization with RTK array and incubation with anti-phosphotyrosine were performed according to manufacturer's instruction. Imaging and quantification of the spots intensities was with Fujifilm LAS-3000 (Tokyo, Japan). Average signal of the duplicate spots for each RTK was determined.

[6] = biological target: T2, Ron (Homo sapiens, UniProt Q04912); assay: Human phospho-RTK array, HuH7: Ron; assay type: cell-based; details: 24 h, untreated 0.04
T2 construct: endogenous in cells; host or cells: HuH7
T2 sequence (Q04912 25-1400): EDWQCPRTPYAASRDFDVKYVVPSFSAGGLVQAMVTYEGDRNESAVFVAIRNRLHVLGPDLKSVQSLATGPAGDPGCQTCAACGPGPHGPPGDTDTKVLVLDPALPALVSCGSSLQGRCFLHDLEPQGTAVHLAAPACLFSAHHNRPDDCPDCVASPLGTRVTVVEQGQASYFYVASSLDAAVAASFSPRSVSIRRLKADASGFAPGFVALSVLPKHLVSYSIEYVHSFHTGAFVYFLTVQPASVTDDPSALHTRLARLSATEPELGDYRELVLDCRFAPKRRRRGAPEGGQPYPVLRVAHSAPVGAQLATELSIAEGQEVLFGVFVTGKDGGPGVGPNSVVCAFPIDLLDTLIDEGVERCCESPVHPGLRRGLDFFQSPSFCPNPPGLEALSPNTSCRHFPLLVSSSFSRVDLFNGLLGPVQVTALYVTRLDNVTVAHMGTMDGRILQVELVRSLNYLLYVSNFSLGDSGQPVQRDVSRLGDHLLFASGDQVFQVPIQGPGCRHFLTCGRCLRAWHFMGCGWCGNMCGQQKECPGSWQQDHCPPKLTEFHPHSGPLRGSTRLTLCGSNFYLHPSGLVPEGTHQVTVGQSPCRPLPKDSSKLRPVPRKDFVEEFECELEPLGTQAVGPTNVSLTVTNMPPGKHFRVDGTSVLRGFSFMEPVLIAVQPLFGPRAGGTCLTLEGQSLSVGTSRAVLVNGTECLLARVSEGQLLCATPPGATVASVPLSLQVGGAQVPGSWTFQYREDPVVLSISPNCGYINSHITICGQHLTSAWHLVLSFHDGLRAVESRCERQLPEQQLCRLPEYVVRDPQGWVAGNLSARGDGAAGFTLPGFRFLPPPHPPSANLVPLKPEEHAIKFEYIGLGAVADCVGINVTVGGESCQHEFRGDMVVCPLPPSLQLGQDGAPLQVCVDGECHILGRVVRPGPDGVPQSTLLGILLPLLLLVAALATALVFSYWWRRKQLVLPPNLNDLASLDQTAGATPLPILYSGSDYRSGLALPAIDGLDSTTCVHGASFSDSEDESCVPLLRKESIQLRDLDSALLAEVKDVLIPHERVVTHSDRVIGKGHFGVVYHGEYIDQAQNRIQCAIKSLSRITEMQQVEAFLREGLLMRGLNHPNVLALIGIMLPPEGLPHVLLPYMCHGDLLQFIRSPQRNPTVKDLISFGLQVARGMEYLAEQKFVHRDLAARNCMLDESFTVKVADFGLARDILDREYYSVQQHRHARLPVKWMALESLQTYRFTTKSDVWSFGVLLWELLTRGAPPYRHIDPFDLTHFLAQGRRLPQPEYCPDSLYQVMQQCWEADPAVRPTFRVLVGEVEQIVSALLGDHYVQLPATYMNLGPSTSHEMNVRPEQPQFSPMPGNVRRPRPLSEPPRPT
Experimental: as §5, §6

[7] = biological target: T3, Her3 (Homo sapiens, UniProt P21860); assay: Human phospho-RTK array, HuH7: Her3; assay type: cell-based; details: 24 h, untreated 0.05
T3 construct: endogenous in cells; host or cells: HuH7
T3 sequence (P21860 20-1342): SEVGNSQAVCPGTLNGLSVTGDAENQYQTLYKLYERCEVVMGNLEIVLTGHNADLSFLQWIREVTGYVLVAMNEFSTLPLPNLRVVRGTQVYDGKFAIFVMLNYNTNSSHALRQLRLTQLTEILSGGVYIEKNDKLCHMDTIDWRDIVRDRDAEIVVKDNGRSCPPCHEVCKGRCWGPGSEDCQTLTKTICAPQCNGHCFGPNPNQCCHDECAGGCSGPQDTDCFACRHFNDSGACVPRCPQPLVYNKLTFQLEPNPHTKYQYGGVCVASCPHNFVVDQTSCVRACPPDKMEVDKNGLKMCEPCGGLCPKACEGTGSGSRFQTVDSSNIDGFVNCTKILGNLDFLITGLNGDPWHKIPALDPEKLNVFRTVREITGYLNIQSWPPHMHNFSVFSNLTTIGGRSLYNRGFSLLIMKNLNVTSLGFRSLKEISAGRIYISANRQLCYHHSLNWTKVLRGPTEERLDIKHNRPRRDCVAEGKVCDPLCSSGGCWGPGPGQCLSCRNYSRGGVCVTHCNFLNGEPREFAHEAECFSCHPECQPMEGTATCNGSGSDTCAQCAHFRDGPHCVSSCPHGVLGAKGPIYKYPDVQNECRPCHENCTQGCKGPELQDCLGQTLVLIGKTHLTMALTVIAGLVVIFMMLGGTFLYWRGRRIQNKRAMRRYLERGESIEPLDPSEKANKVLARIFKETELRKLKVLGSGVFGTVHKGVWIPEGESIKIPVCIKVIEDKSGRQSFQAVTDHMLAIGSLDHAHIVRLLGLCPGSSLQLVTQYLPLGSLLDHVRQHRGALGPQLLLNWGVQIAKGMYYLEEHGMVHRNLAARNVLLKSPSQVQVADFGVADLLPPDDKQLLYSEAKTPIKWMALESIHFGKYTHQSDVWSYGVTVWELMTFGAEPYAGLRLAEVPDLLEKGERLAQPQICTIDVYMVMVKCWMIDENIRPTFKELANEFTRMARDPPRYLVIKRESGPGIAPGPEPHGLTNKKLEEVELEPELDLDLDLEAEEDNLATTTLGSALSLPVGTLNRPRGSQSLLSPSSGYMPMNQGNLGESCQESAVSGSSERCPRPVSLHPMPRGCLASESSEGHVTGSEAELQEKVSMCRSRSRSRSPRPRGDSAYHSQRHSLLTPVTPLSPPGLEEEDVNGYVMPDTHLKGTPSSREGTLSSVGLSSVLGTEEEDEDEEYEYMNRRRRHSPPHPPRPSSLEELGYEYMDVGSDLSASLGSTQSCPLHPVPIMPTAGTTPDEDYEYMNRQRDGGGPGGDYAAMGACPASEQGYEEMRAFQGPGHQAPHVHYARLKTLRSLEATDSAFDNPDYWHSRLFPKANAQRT
Experimental: as §5, §6

[8] = biological target: T4, IGF-1R (Homo sapiens, UniProt P08069); assay: Immunoblot of phospho-IGF-1R in HuH7; assay type: cell-based; details: HuH7, 24 h; Compound 47 1, 5 or 10 μM, sunitinib 10 μM
T4 construct: we examined the constitutively phosphorylated IGF-1R, EphA2 and Tyro3; endogenous in cells; host or cells: HuH7
T4 sequence (P08069 31-1367): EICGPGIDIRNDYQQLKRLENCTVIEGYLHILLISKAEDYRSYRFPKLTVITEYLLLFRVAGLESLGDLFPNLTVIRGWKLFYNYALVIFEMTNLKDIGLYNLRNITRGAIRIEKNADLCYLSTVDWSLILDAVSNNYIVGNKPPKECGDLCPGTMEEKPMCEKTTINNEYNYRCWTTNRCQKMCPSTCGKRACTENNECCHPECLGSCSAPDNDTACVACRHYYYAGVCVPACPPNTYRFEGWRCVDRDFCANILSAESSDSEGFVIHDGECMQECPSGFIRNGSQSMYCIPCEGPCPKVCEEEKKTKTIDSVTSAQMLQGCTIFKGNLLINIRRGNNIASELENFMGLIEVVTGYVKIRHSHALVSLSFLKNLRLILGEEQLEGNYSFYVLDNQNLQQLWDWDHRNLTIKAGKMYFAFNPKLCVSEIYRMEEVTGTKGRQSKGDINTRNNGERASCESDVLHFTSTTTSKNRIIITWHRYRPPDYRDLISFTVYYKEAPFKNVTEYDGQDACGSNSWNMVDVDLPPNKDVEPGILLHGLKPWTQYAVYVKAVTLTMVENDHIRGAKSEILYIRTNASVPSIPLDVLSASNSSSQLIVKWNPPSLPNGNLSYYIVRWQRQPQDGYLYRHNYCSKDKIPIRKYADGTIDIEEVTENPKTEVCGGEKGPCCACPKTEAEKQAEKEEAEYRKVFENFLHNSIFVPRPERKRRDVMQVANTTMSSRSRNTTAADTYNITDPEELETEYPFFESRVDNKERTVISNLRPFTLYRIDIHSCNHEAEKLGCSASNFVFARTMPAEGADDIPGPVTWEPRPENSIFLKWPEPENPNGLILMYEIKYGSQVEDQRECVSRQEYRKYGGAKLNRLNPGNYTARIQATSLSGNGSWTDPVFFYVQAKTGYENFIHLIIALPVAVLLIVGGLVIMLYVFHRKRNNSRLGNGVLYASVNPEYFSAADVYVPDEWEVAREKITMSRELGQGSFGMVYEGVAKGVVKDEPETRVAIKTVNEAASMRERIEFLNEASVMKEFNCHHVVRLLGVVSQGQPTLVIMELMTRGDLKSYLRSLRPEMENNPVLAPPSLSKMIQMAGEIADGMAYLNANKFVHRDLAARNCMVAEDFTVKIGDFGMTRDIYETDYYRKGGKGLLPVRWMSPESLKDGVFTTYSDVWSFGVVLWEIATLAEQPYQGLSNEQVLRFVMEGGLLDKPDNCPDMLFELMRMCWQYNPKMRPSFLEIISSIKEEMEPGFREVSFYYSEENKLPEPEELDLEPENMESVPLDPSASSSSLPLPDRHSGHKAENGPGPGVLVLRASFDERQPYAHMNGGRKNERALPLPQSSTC

[9] = biological target: T1, EphA2; assay: Immunoprecipitation / anti-phosphotyrosine blot of EphA2 in HuH7; assay type: cell-based; details: HuH7, 24 h; Compound 47 1, 5 or 10 μM, sunitinib 10 μM
[10] = biological target: T4, IGF-1R; assay: Human phospho-RTK array, HuH7: IGF-1R; assay type: cell-based; details: 24 h, untreated 0.19
Experimental: as §5, §6

[11] = system: SK-Hep1; assay: Cell Titer-Glo viability, SK-Hep1; assay type: cell-based; details: Homo sapiens
Experimental: The efficacy of compound 47 against HCC proliferation was tested on a wider panel of HCC cell lines: Hep3B ([…]), Hs817T (▪), PLC/PRF/5 (▴) and SK-Hep 1 (▾), as determined by Cell Titer-Glo assay.
as §1
Accordingly, Compound 47 was screened against a larger panel of 4 additional HCC cell lines.

[12] = biological target: T5, EGFR (Homo sapiens, UniProt P00533); assay type: cell-based
T5 construct: Cells treated similarly were immunoprecipitated with anti-EGFR, anti-EphA2 and anti-Tyro3; endogenous in cells; host or cells: HuH7

[13] = system: AFP; assay: AFP transcription in HuH7 by quantitative real-time PCR; assay type: cell-based, human; details: HuH7, 10 μM, 24 h, normalized against 18S mRNA

| Structure (SMILES) | IC50 [1] [nM] | IC50 [2] [nM] | IC50 [3] [nM] | viability at 10 µM [3] [%] | SR(HuH7/THLE2) safety ratio [3] | IC50 [4] [nM] | viability at 10 µM [4] [%] | SR(HepG2/THLE2) safety ratio [4] | also measured |
| --- | --- | --- | --- | --- | --- | --- | --- | --- | --- |
| COc1ccc2c(c1)NC(=O)/C2=C/c1ccc(OC)c(O)c1 [Compound 45, (E)-3-(3-Hydroxy-4-methoxybenzylidene)-6-methoxyindolin-2-one] | 9800 | > 10000 | 8000 | 46.6 ± 1.8 | 1.54 | 1400 | 19.9 ± 1.4 | 3.61 | – |
| O=C1Nc2cc(F)ccc2/C1=C\c1cccc(C(F)(F)F)c1 [Compound 46, (E)-6-Fluoro-3-(3-(trifluoromethyl)benzylidene)indolin-2-one] | 2200 | > 10000 | 1100 | 11.3 ± 1 | 6.39 | 400 | 4.2 ± 0.3 | 17.19 | – |
| COc1ccc2c(c1)NC(=O)/C2=C/c1cccc(C(F)(F)F)c1 [Compound 48, (E)-6-Methoxy-3-(3-(trifluoromethyl)benzylidene)indolin-2-one] | 2600 | 3600 | 2300 | 27.3 ± 0.5 | 1.27 | 400 | 14.5 ± 1.3 | 2.40 | – |
| O=C1Nc2cc(Cl)ccc2/C1=C\c1cccc(C(F)(F)F)c1 [Compound 47, (E)-6-Chloro-3-(3-(trifluoromethyl)benzylidene)indolin-2-one] | 1100 | > 10000 | 500 | 3.3 ± 0.2 | 21.76 | 600 | 1.1 ± 0.09 | 65.27 | EphA2 Phosphorylation ([5]; serum starved HuH7, 1 μM): 0.09 Arbitrary units; EphA2 Phosphorylation ([5]; serum starved HuH7, 5 μM): 0.05 Arbitrary units; EphA2 Phosphorylation ([5]; serum starved HuH7, 10 μM): 0.02 Arbitrary units; Ron Phosphorylation ([6]; serum starved HuH7, 1 μM): 0.06 Arbitrary units; Ron Phosphorylation ([6]; serum starved HuH7, 5 μM): 0.05 Arbitrary units; Ron Phosphorylation ([6]; serum starved HuH7, 10 μM): 0.03 Arbitrary units; Her3 Phosphorylation ([7]; serum starved HuH7, 1 μM): 0.07 Arbitrary units; Her3 Phosphorylation ([7]; serum starved HuH7, 5 μM): 0.04 Arbitrary units; Her3 Phosphorylation ([7]; serum starved HuH7, 10 μM): 0.03 Arbitrary units; IGF-1R phosphorylation (Y980 and Y1135/1136) by immunoblot [8]: proportional reduction; EphA2 phosphorylation by immunoblot [9]: proportional reduction; IGF-1R Phosphorylation ([10]; serum starved HuH7, 1 μM): 0.22 Arbitrary units; IGF-1R Phosphorylation ([10]; serum starved HuH7, 5 μM): 0.13 Arbitrary units; IGF-1R Phosphorylation ([10]; serum starved HuH7, 10 μM): 0.07 Arbitrary units; IC50 [11]: > 10000 nM; EGFR phosphorylation by immunoblot [12]: unexpected increase; AFP transcript vs untreated controls [13]: significantly repressed to one-third |
| COc1cccc(/C=C2/C(=O)Nc3cc(OC)ccc32)c1 [Compound 42, (E)-6-Methoxy-3-(3-methoxybenzylidene)indolin-2-one] | 9800 | 1200 | 4000 | 49.2 ± 4 | 0.79 | 2200 | 20.7 ± 2 | 1.89 | – |

— US20110269812A1, “NOVEL BENZYLIDENE-INDOLINONE AND THEIR MEDICAL AND DIAGNOSTIC USES” (Agency for Science, Technology and Research, priority 2008, published 2011)
